# In BindingDB's records for patent US20240199605 (Janssen Pharmaceutica, 2024):
# pIC50: −log10 of the molar value.
# Molecular target: Mitogen-activated protein kinase kinase kinase 14 (Homo sapiens, UniProt Q99558)
# Experiment: Inhibition of auto-phosphorylation of recombinant human NF-kappaB-inducing kinase (NIK/MAP3K14) activity (AlphaScreen)
# Procedure: All compounds tested were dissolved in dimethyl sulfoxide (DMSO) and further dilutions were made in assay buffer. The final DMSO concentration was 0.7% (v/v) in assays. […] The assays were carried out in 384 well Proxiplates (Perkin Elmer).
# Chain of Mitogen-activated protein kinase kinase kinase 14 (Q99558 whole entry): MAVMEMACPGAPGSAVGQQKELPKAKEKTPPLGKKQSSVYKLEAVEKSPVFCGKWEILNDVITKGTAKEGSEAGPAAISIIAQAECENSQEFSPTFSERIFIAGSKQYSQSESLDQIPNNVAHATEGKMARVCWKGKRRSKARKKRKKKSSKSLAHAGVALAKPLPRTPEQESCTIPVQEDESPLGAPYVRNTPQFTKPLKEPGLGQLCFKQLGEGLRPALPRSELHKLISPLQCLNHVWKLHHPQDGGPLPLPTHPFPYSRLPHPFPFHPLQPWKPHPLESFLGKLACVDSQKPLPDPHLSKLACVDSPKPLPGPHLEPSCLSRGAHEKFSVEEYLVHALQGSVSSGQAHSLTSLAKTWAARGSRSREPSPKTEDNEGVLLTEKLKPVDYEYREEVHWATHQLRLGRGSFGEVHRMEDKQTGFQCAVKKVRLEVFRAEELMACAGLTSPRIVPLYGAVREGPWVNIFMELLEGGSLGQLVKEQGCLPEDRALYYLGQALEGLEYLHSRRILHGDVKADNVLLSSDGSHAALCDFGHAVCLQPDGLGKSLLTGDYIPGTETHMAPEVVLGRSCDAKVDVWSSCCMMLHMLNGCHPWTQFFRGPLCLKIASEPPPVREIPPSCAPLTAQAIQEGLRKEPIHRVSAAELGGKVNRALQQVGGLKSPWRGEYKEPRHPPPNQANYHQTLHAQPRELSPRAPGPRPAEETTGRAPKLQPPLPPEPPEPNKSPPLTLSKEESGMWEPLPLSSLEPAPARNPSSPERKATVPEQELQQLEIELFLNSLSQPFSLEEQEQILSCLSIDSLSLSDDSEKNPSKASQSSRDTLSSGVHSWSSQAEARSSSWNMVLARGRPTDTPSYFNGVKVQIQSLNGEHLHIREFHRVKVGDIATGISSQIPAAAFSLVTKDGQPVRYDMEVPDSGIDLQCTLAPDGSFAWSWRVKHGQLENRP
smiles,measurement,value
"Cc1cc(C#C[C@]2(O)CCN(C)C2=O)cc(-c2nc3c(N)ncnc3s2)c1 [US20240199605, Example 153]",pIC50,9.10
